From US20230295234A1, “ANTIMICROBIAL PEPTIDOMIMETICS” (SPEXIS AG, priority 2020, published 2023)
Peptide text beside a SMILES is read from it.

Assays:
[1] = test system: Klebsiella pneumoniae SSI3010; settings: SSI3010
In short: (§1)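 Standardized inocula (0.5 McFarland in saline, then diluted in MHII broth to approximately 5×10^5 CFU/mL) were exposed to two-fold dilution series of each peptide in the presence of polysorbate 80 (0.002% final).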

[2] = test system: Escherichia coli ATCC 25922; settings: ATCC 25922
In short: as §1

[3] = test system: Escherichia coli MCR-1 Af 45; settings: MCR-1 Af 45
In short: as §1

[4] = test system: human red blood cells (hRBC); assay: Hemolysis of human red blood cells; format: cell-based; settings: red cells of human, 1 h
In short: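 Percent hemolysis is OD540 of peptide-treated supernatant relative to water-lysed cells. Each peptide was tested at 200 μg/mL against 20% (v/v) washed human erythrocytes. Incubation was 1 h at 37 °C, 300 rpm.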

Structure (SMILES) | Klebsiella pneumoniae SSI3010 MIC [1] | Escherichia coli ATCC 25922 MIC [2] | Escherichia coli MCR-1 Af 45 MIC [3] | Hemolysis at 0.2 g/L [4]
CC[C@H](C)[C@H](NC(=O)[C@@H](NC(=O)[C@@H]1CCCN1C(=O)[C@@H](NC(=O)[C@@H]1CCCN1C(=O)[C@H](CCCCN)NC(=O)[C@@H](N)CCCCN)C(C)C)[C@@H](C)CC)C(=O)N[C@@H](Cc1ccc(O)cc1)C(=O)N[C@H]1CSSC[C@@H](C(=O)N[C@@H](CCN)C(=O)N[C@@H](CCCNC(=N)N)C(=O)N[C@H](C(=O)O)C(C)(C)C)NC(=O)[C@H](CCCCN)NC(=O)[C@@H](CCN)NC(=O)[C@H]([C@@H](C)O)NC(=O)[C@H](CCN)NC(=O)[C@H](CCCNC(=N)N)NC(=O)[C@H](CC(N)=O)NC1=O [Example 84] (HELM PEPTIDE1{K.K.P.V.P.I.I.Y.C.N.R.[Dab].T.[NCC[C@@H](N[*:1])C(=O)[*:2]].K.C.[Dab].R.[CC(C)(C)[C@H](N[*:1])C(=O)O]}$PEPTIDE1,PEPTIDE1,9:R3-16:R3$$$V2.0) | 0.125 µg/mL | 0.0625 µg/mL | 0.0625 µg/mL | 0%
CC[C@H](C)[C@H](NC(=O)[C@@H](NC(=O)[C@@H]1CCCN1C(=O)[C@@H](NC(=O)CCNC(=O)[C@H](CCCNC(=N)N)NC(=O)[C@@H](N)CCCCN)C(C)C)[C@@H](C)CC)C(=O)N[C@@H](Cc1ccc(O)cc1)C(=O)N[C@@H]1C(=O)N[C@@H](CC(N)=O)C(=O)N[C@@H](CCCNC(=N)N)C(=O)N[C@@H](CCN)C(=O)N[C@@H]([C@@H](C)O)C(=O)N[C@H](CCN)C(=O)N[C@@H](CCCCN)C(=O)N[C@H](C(=O)N[C@@H](CCN)C(=O)N[C@@H](CCCNC(=N)N)C(=O)N[C@@H](Cc2ccc(O)cc2)C(=O)O)CSSC1(C)C [Example 85, Lys-Arg-betaGly-Val-Pro-Ile-Ile-Tyr-Pen-Asn-Arg-Dab-Thr-^DDab-Lys-Cys-Dab-Arg-Tyr] (HELM PEPTIDE1{K.R.[bAla].V.P.I.I.Y.[Pen].N.R.[Dab].T.[NCC[C@@H](N[*:1])C(=O)[*:2]].K.C.[Dab].R.Y}$PEPTIDE1,PEPTIDE1,9:R3-16:R3$$$V2.0) | 0.125 µg/mL | 0.0625 µg/mL | 0.0625 µg/mL | 0%
CC[C@H](C)[C@H](NC(=O)[C@@H]1CCCN1C(=O)[C@@H](NC(=O)[C@@H]1CCCN1C(=O)[C@H](CCCNC(=N)N)NC(=O)[C@@H](N)CCCCN)C(C)C)C(=O)N[C@@H](CCCNC(=N)N)C(=O)N[C@@H](Cc1ccc(O)cc1)C(=O)N[C@@H]1C(=O)N[C@@H](CC(N)=O)C(=O)N[C@@H](CCCNC(=N)N)C(=O)N[C@@H](CCN)C(=O)N[C@@H]([C@@H](C)O)C(=O)N[C@H](CCN)C(=O)N[C@@H](CCCCN)C(=O)N[C@H](C(=O)N[C@@H](CCN)C(=O)N[C@@H](CCCNC(=N)N)C(=O)N[C@@H](Cc2ccc(O)cc2)C(=O)O)CSSC1(C)C [Example 86] (HELM PEPTIDE1{K.R.P.V.P.I.R.Y.[Pen].N.R.[Dab].T.[NCC[C@@H](N[*:1])C(=O)[*:2]].K.C.[Dab].R.Y}$PEPTIDE1,PEPTIDE1,9:R3-16:R3$$$V2.0) | 0.125 µg/mL | 0.125 µg/mL | ≤0.03125 µg/mL | 0%
CC[C@H](C)[C@H](NC(=O)[C@@H]1CCCN1C(=O)[C@@H](NC(=O)[C@@H]1CCCN1C(=O)[C@H](CCCNC(=N)N)NC(=O)[C@@H](N)CCCCN)C(C)C)C(=O)N[C@H](C(=O)N[C@@H](Cc1ccc(O)cc1)C(=O)N[C@@H]1C(=O)N[C@@H](CC(N)=O)C(=O)N[C@@H](CCCNC(=N)N)C(=O)N[C@@H](CCN)C(=O)N[C@@H]([C@@H](C)O)C(=O)N[C@H](CCN)C(=O)N[C@@H](CCCCN)C(=O)N[C@H](C(=O)N[C@@H](CCN)C(=O)N[C@@H](CCCNC(=N)N)C(=O)N[C@@H](Cc2ccc(O)cc2)C(=O)O)CSSC1(C)C)[C@@H](C)O [Example 87] (HELM PEPTIDE1{K.R.P.V.P.I.T.Y.[Pen].N.R.[Dab].T.[NCC[C@@H](N[*:1])C(=O)[*:2]].K.C.[Dab].R.Y}$PEPTIDE1,PEPTIDE1,9:R3-16:R3$$$V2.0) | 0.25 µg/mL | ≤0.03125 µg/mL | ≤0.03125 µg/mL | 0%
CC[C@H](C)[C@H](NC(=O)[C@@H]1CCCN1C(=O)[C@@H](NC(=O)CN(C)C(=O)[C@H](CCCNC(=N)N)NC(=O)[C@@H](N)CCCCN)C(C)C)C(=O)N[C@H](C(=O)N[C@@H](Cc1ccc(O)cc1)C(=O)N[C@@H]1C(=O)N[C@@H](CC(N)=O)C(=O)N[C@@H](CCCNC(=N)N)C(=O)N[C@@H](CCN)C(=O)N[C@@H]([C@@H](C)O)C(=O)N[C@H](CCN)C(=O)N[C@@H](CCCCN)C(=O)N[C@H](C(=O)N[C@@H](CCN)C(=O)N[C@@H](CCCNC(=N)N)C(=O)N[C@@H](Cc2ccc(O)cc2)C(=O)O)CSSC1(C)C)[C@@H](C)O [Example 88, Lys-Arg-Sar-Val-Pro-Ile-Thr-Tyr-Pen-Asn-Arg-Dab-Thr-^DDab-Lys-Cys-Dab-Arg-Tyr] (HELM PEPTIDE1{K.R.[Sar].V.P.I.T.Y.[Pen].N.R.[Dab].T.[NCC[C@@H](N[*:1])C(=O)[*:2]].K.C.[Dab].R.Y}$PEPTIDE1,PEPTIDE1,9:R3-16:R3$$$V2.0) | 0.0625 µg/mL | ≤0.03125 µg/mL | ≤0.03125 µg/mL | 0%
CC[C@H](C)[C@H](NC(=O)[C@@H]1CCCN1C(=O)[C@@H](NC(=O)CN(C)C(=O)[C@H](CCCNC(=N)N)NC(=O)[C@@H](N)CCCCN)C(C)C)C(=O)N[C@@H](Cc1ccccc1)C(=O)N[C@@H](Cc1ccc(O)cc1)C(=O)N[C@@H]1C(=O)N[C@@H](CC(N)=O)C(=O)N[C@@H](CCCNC(=N)N)C(=O)N[C@@H](CCN)C(=O)N[C@@H]([C@@H](C)O)C(=O)N[C@H](CCN)C(=O)N[C@@H](CCCCN)C(=O)N[C@H](C(=O)N[C@@H](CCN)C(=O)N[C@@H](CCCNC(=N)N)C(=O)N[C@@H](Cc2ccc(O)cc2)C(=O)O)CSSC1(C)C [Example 89, Lys-Arg-Sar-Val-Pro-Ile-Phe-Tyr-Pen-Asn-Arg-Dab-Thr-^DDab-Lys-Cys-Dab-Arg-Tyr] (HELM PEPTIDE1{K.R.[Sar].V.P.I.F.Y.[Pen].N.R.[Dab].T.[NCC[C@@H](N[*:1])C(=O)[*:2]].K.C.[Dab].R.Y}$PEPTIDE1,PEPTIDE1,9:R3-16:R3$$$V2.0) | 0.0625 µg/mL | 0.0625 µg/mL | ≤0.03125 µg/mL | 0%
